Source: patent US20230357210A1, “NITROGEN-CONTAINING CONDENSED HETEROCYCLIC COMPOUND HAVING AN OXIME GROUP, AGRICULTURAL OR HORTICULTURAL HERBICIDE COMPRISING THE COMPOUND, AND METHOD FOR USING THE COMPOUND OR THE HERBICIDE” (NIHON NOHYAKU CO., LTD., priority 2020, published 2023)

A melting point of 149 to 150 °C was found for `CCON=C(N)c1ccc(S(C)(=O)=O)c(-c2nc3cc(C(F)(F)F)ccc3n2C)n1` [1-205, N′-ethoxy-5-methylsulfonyl-6-[1-methyl-5-(trifluoromethyl)benzimidazol-2-yl]pyridine-2-carboxamidine] in this work.
A melting point of 173 to 174 °C was found for `CCON=C(N)c1ccc(S(=O)(=O)NC)c(-c2nc3cc(C(F)(F)F)ccc3n2C)n1` [1-210, N′-ethoxy-5-methylsulfamoyl-6-[1-methyl-5-(trifluoromethyl)benzimidazol-2-yl)pyridine-2-carboxamidine] in this work.
A melting point of 154 to 155 °C was found for `CCON=C(NC)c1ccc(S(C)(=O)=O)c(-c2nc3cc(C(F)(F)F)ccc3n2C)n1` [1-216, N′-ethoxy-N-methyl-5-methylsulfonyl-6-[1-methyl-5-(trifluor omethyl)benzimidazol-2-yl]pyridine-2-carboxamidine] in this work.
A melting point of 150 to 151 °C was found for `CCON=C(c1ccc(S(C)(=O)=O)c(-c2nc3cc(C(F)(F)F)ccc3n2C)n1)N(C)C` [1-220, N′-ethoxy-N,N-dimethyl-5-methylsulfonyl-6-[1-methyl-5-(trifluoromethyl)benzimidazol-2-yl)pyridine-2-carboxamidine] in this work.
A melting point of 195 to 196 °C was found for `CCO/N=C/c1ccc(C(=O)O)c(-c2nc3cc(SC(F)(F)F)ccc3n2C)n1` [2-81, 6-[(E)-ethoxyiminomethyl]-2-[1-methyl-5-(trifluoromethylthio)benzimidazol-2-yl]pyridine-3-carboxylic acid] in this work.
A melting point of 118 to 119 °C was found for `CCO/N=C/c1ccc(C(=O)N(C)C)c(-c2nc3cc(SC(F)(F)F)ccc3n2C)n1` [2-95, 6-[(E)-ethoxyiminomethyl]-N,N-dimethyl-2-[1-methyl-5-(trifluoromethylthio)benzimidazol-2-yl]pyridine-3-carboxamide] in this work.
A melting point of 121 to 122 °C was found for `CCO/N=C(\C)c1ccc(C(=O)OC)c(-c2nc3cc(SC(F)(F)F)ccc3n2C)n1` [2-105, 6-[(E)-N-ethoxy-C-methyl-carbonimidoyl]-2-[1-methyl-5-(trifluoromethylthio)benzimidazol-2-yl]pyridine-3-carboxylic acid methyl ester] in this work.
A melting point of 46 to 47 °C was found for `CCON=C(N)c1ccc(C(=O)OC)c(-c2nc3cc(C(F)(F)F)ccc3n2C)n1` [2-123, N′-ethoxy-5-methoxycarbonyl-6-[1-methyl-5-(trifluoromethyl)benzimidazol-2-yl)pyridine-2-carboxamidine] in this work.
A melting point of 144 to 145 °C was found for `CCON=C(N)c1cc(C)c(Cl)c(-c2nc3cc(C(F)(F)F)ccc3n2C)n1` [3-65, 5-chloro-N′-ethoxy-4-methyl-6-[1-methyl-5-(trifluoromethyl)benzimidazol-2-yl]pyridine-2-carboxamidine] in this work.
A melting point of 246 to 247 °C was found for `CCON=C(N)c1cc(C)c(S(C)(=O)=O)c(-c2nc3cc(C(F)(F)F)ccc3n2C)n1` [3-70, N′-ethoxy-4-methyl-5-methylsulfonyl-6-[1-methyl-5-(trifluor omethyl)benzimidazol-2-yl]pyridine-2-carboxamidine] in this work.
A melting point of 244 to 246 °C was found for `CCO/N=C(\N)c1cnc(S(=O)(=O)NC)c(-c2nc3cc(C(F)(F)F)ccc3n2C)n1` [7-46, (Z)-N′-ethoxy-6-(1-methyl-5-(trifluoromethyl)-1H-benzo[d]imidazol-2-yl)-5-(N-methylsulfamoyl)pyrazine-2-carboximidamide] in this work.
A melting point of 222 to 223 °C was found for `CCO/N=C(\N)c1ncc(S(=O)(=O)NC)c(-c2nc3ccccc3n2C)n1` [8-6, (Z)-N′-ethoxy-4-(1-methyl-1H-benzo[d]imidazol-2-yl)-5-(N-methylsulfamoyl)pyrimidine-2-carboximidamide] in this work.
